In patent publication US20230183746A1, “COMPOSITIONS FOR TRANSFER OF CARGO TO CELLS” (Sixfold Bioscience Ltd., priority 2019, published 2023):
Entries after “also recorded” stand apart in the source; their conditions may differ. {Cy5} = Cy5 fluorescent dye; r = 2'-OH (RNA); f = 2'-fluoro

How the values were obtained:
[1] = system: EGFRvIII overexpressing HEK293T cells; assay: FACS based fluorescent molecule uptake assay; assay type: cell-based; conditions: 200 nM, 2 hours
Source text: A number of different cell types have been trialled for a FACS based fluorescent molecule uptake assay. These include stably transfected HEK293T cells overexpressing the truncated mutant EGFRvIII, which is characterised by a deletion of 267 amino acids in the extracellular domain and results in a receptor unable to bind ligand yet constitutively active. WT cells with various endogenous levels of EGFR expression have also been trialled: HELA cells (EGFR+), MCF-7 (EGFR-), MDA-MB-231 (EGFR+), and A549 (EGFR+). Seeding densities used were identical for all experiments and described below.
Cells were plated with 1x10^5 cells per well of 24 well plates. 24 hours later cells were treated with 200 nM of specified aptamer (A-1.0 or A-2.0) or nucleic acid nanoparticle in 250 µL DMEM media for 2 hours. To terminate internalisation, media was removed from cells and washed with 500 µL Dulbecco’s Phosphate Buffered Saline (D-PBS), followed by trypsinisation, neutralisation in DMEM media and transfer to labelled 1.5 mL Eppendorf tubes. […]
Geometric mean quantification of flow cytometry results after normalisation by removal of respective background fluorescence in untreated cells. Numbers above the bars are calculated fold increase in internalisation between control and EGFRvIII overexpressing HEK293T cells. […]

[2] = system: cancer cells expressing EGFR; assay: confocal microscopy of Cy5-labelled aptamer/construct uptake; assay type: cell-based; conditions: live HeLa cells, 200 nM, Lysotracker and early endosome GFP stains
Protocol: Cells were imaged by confocal microscopy after treatment with 200 nM Cy5-labelled E07min aptamer (A-1.0) or 200 nM Cy5-labelled constructs (SQ1-1000-001). For aptamer uptake experiments, 1x10^4 cells were plated in each well of a µ-Slide 8 well ibiditreat chamber (IBIDI), in 300 µL DMEM containing 10% v/v FBS. For uptake experiments, 3.4x10^3 cells (HeLa, MDA-MB-231 and A549 cells) or 6.8x10^3 cells (Mcf-7) were plated in each well of a µ-Slide 18 well ibiditreat chamber (IBIDI), in 100 µL DMEM containing 10% v/v FBS. 5 hours after cells had adhered and 48 hours before imaging, media was replaced with 50 particles per cell (PPC) CellLight early endosome-GFP (Thermo Fisher Scientific) for overnight incubation at 37° C. Additionally, 200 µL DMEM aliquots containing 200 nM aptamer were added to cells at corresponding incubation time points. Subsequently, media was removed and replaced with 60 nM LysoTracker Red DND-99 (Thermo Fisher Scientific) in 100-200 µL DMEM for 1 hour at 37° C. Cells were then washed once with Hank’s Balanced Salt Solution (HBSS) (Gibco). Finally, 100-200 µL imaging media (HBSS buffered with 20 mM 4-(2- hydroxyethyl)-1-piperazineethanesulfonic acid (HEPES), adjusted to pH 7.4) was added to cells. Confocal images were captured with an EVOS microscope or a Zeiss LSM510 laser scanning microscope using 60x oil objective lens. Images were produced using ImageJ software.

In the case of “[Cy5] GGAcGGAuuuAAucGccGuAGAAAAGCAuGucAAAGccGGAAccGucc (GGACGGAUUUAAUCGCCGUAGAAAAGCAUGUCAAAGCCGGAACCGUCC; sugars from the 5' end rrrfrrrfffrrffrffrfrrrrrrrrrfrffrrrrffrrrrffrfff, 5' {Cy5}, backbone not given here) [A-1.0, 2′F U, C 5′ Cy5 E07min (SXF1) aptamer, anti-EGFR, literature-known]”, the “EGFR targeting specificity compared to a scramble control aptamer (A-3.0)” value ([1]; control vs EGFRvIII overexpressing HEK293T cells) is reported as 10 fold, the “specificity of uptake (flow cytometry)” value ([1]; Cy5-labelled aptamer) is reported as “more specifically uptaken than SXF2 (CL4 aptamer); also recorded: specifically uptaken by EGFR expressing cells” and the “intracellular localisation after internalisation” value [2] is reported as “accumulate in lysosomes after internalisation”.
